Consider ten compounds from patent US7947717B2 (priority 2008, dated 2011).

SMILES strings stand for the structures. Like-named read-outs stand apart in the source and are kept apart here.

One data set addresses human CYP2C9 (Homo sapiens, UniProt P11712). The experiment in a line: biochemical.
The next data set addresses lethal factor (LF) (Bacillus anthracis, UniProt P15917). In words: biochemical. The format is biochemical.
A short description of another data set: physchem. As to conditions: 23 °C, pH 7.4, aqueous with cosolvent or surfactant or cyclodextrin, kinetic from dmso stock.
Another data set concerns the target human CYP 2C19 (Homo sapiens, UniProt P33261). In words: biochemical.
The conditions of data set [1]: rat.
The target in a further data set is human CYP2D6 (Homo sapiens, UniProt P10635). The experiment in a line: biochemical.
Another data set deals with HepG2 cells. As to conditions: human.
For data set [2] the following is noted: rat, hepatocytes.
A further data set concerns the target hERG (Homo sapiens, UniProt Q12809). The experiment in a line: in vitro.
Assay in data set [3]: not given
The source holds these as a separate data set.

A further data set concerns the target human CYP3A4 (Homo sapiens, UniProt P08684). In words: biochemical.
In a further data set the target is T1, human CYP1A2 (Homo sapiens, UniProt P05177).
T1 sequence (P05177 1-516): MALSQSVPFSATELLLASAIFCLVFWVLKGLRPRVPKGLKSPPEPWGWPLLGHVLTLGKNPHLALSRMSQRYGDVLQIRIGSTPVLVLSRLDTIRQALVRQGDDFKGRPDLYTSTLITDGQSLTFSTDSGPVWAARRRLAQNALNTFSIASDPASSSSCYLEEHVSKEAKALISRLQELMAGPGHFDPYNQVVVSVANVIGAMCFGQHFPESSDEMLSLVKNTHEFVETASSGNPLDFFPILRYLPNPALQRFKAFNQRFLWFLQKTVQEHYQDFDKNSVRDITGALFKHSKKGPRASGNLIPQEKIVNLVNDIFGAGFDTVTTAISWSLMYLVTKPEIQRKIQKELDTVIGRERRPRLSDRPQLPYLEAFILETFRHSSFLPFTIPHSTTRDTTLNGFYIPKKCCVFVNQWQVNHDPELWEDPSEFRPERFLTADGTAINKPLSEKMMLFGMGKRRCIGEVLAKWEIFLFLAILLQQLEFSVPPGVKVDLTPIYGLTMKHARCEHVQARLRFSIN
The experiment in a line: biochemical.

Another data set relates to RAW 264.7 cells. Format: cell-based, Murine.
The target in a further data set is BoNT A (Clostridium botulinum, UniProt P0DPI0). In words: biochemical.
In another data set the target is T2, MMP-2 (Homo sapiens, UniProt P08253).
T2 construct: purchased Anaspec, Inc. 71151/71155
T2 sequence (P08253 110-660): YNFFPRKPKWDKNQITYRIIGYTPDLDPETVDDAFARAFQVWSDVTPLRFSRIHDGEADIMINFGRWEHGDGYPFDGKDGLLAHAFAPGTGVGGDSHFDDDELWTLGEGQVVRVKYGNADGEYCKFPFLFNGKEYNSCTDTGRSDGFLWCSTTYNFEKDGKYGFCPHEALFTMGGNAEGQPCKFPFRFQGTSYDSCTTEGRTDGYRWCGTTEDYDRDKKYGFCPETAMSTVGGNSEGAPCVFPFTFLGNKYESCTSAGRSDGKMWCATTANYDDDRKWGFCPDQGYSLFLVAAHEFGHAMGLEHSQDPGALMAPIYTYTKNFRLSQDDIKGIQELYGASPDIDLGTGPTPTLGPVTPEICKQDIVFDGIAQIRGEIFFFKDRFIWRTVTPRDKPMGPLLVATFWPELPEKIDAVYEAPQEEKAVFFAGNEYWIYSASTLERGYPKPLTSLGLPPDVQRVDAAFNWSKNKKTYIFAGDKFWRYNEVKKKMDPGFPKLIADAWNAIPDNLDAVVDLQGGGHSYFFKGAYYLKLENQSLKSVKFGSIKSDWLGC
In words: MMP-2 assay (Anaspec kit). The format is biochemical.

Data set [4] can be described thus: in vitro. As to conditions: rat, hepatocytes, pH 7.4.
A further data set concerns the target human MDR1 ABCB1/Pgp (Homo sapiens, UniProt P08183).
A short description of data set [5]: in vitro. Particulars: s9.
In the next data set the target is LF metalloproteinase (Bacillus anthracis, UniProt P15917). As to conditions: read-out: Ki of LF metalloproteinase activity; cited from earlier work.
In a further data set the target is T3, MMP-9 (Homo sapiens, UniProt P14780).
T3 construct: purchased Anaspec, Inc. 71151/71155
In words: MMP-9 assay (Anaspec kit). Format: biochemical.

Data set [6] has as its system Bacillus anthracis Sterne spores. Also on record: species or system A/J mice. Particulars: mouse, in vivo.
Where [7] appears, read: read-out: IC50 (μM) of selected LF compounds (Table 7).

Sequence of lethal factor (LF) (P15917 34-809 limits assumed): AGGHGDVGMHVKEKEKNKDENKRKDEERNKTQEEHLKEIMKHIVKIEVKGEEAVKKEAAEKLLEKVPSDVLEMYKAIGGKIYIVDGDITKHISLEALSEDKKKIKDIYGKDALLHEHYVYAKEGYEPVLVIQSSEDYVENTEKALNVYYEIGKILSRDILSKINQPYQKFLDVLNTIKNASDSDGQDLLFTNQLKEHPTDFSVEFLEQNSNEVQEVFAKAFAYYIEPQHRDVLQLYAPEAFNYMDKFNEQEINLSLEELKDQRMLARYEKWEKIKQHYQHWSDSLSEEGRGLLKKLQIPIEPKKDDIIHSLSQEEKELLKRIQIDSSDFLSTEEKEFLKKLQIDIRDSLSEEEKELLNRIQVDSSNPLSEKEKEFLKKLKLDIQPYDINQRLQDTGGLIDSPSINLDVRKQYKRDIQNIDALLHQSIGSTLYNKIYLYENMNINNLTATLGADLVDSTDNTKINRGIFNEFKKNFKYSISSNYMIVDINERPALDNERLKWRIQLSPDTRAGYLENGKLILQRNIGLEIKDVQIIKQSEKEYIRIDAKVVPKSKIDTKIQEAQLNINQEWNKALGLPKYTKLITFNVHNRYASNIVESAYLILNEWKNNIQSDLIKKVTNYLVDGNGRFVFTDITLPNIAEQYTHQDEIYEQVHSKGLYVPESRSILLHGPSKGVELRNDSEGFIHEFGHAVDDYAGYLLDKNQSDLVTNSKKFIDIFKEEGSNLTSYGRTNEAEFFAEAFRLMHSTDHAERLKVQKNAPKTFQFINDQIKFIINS
Sequence of human CYP 2C19 (P33261 whole entry): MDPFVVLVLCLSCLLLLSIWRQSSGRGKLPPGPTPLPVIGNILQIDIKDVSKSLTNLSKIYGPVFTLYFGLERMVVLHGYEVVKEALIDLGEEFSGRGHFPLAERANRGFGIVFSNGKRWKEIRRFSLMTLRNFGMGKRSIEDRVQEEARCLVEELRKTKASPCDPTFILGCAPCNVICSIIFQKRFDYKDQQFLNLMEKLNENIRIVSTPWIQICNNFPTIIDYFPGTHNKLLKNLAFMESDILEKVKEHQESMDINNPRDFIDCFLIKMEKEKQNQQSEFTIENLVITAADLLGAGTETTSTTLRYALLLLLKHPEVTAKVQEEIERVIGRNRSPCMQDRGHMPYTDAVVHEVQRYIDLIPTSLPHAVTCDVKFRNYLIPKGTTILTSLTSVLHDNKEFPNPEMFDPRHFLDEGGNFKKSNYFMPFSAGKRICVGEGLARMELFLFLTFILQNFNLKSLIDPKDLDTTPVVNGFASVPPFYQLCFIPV
Sequence of human CYP2D6 (P10635 whole entry): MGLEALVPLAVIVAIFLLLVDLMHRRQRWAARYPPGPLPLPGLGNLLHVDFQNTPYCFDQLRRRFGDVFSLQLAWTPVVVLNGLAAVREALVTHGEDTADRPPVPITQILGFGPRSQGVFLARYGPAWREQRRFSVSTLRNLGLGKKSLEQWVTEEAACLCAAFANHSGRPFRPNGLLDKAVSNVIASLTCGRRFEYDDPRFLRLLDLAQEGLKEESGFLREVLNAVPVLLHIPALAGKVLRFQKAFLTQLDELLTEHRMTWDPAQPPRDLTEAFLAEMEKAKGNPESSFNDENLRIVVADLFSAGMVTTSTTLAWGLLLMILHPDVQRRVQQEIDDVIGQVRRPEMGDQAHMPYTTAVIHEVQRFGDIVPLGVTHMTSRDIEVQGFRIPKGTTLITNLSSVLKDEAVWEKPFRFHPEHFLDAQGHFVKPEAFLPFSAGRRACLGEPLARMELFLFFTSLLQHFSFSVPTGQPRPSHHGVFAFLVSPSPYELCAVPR
Sequence of hERG (Q12809 whole entry): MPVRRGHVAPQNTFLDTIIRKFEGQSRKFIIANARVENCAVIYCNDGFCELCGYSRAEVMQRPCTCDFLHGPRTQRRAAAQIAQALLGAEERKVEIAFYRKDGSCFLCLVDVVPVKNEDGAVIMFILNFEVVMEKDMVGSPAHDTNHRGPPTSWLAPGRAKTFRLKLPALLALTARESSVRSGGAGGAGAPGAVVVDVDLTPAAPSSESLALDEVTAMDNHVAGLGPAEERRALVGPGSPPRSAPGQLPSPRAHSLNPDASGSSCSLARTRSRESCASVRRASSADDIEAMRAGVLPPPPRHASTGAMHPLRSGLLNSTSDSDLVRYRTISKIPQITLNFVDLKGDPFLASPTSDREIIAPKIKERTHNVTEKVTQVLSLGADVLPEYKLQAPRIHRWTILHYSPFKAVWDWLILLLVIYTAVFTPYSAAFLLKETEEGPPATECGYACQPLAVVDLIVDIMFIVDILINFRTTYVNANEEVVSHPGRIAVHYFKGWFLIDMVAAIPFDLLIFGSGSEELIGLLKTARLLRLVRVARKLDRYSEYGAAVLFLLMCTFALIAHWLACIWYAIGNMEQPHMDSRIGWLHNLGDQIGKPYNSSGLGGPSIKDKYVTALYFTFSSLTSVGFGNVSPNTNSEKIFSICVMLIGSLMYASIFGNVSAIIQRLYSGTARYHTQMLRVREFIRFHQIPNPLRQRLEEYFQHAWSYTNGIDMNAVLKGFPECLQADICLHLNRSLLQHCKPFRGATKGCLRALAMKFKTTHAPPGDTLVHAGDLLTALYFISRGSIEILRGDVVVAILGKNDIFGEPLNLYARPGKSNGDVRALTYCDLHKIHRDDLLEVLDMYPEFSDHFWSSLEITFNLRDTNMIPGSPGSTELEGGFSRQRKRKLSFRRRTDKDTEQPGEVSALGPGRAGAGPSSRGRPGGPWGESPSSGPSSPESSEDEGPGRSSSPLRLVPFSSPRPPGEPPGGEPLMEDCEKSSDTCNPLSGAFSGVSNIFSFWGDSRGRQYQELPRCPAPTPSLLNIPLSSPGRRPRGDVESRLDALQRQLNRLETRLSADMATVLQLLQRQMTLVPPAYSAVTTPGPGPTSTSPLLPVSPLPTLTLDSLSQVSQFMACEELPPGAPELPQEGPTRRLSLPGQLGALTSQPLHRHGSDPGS
Sequence of BoNT A (P0DPI0 whole entry, looked up): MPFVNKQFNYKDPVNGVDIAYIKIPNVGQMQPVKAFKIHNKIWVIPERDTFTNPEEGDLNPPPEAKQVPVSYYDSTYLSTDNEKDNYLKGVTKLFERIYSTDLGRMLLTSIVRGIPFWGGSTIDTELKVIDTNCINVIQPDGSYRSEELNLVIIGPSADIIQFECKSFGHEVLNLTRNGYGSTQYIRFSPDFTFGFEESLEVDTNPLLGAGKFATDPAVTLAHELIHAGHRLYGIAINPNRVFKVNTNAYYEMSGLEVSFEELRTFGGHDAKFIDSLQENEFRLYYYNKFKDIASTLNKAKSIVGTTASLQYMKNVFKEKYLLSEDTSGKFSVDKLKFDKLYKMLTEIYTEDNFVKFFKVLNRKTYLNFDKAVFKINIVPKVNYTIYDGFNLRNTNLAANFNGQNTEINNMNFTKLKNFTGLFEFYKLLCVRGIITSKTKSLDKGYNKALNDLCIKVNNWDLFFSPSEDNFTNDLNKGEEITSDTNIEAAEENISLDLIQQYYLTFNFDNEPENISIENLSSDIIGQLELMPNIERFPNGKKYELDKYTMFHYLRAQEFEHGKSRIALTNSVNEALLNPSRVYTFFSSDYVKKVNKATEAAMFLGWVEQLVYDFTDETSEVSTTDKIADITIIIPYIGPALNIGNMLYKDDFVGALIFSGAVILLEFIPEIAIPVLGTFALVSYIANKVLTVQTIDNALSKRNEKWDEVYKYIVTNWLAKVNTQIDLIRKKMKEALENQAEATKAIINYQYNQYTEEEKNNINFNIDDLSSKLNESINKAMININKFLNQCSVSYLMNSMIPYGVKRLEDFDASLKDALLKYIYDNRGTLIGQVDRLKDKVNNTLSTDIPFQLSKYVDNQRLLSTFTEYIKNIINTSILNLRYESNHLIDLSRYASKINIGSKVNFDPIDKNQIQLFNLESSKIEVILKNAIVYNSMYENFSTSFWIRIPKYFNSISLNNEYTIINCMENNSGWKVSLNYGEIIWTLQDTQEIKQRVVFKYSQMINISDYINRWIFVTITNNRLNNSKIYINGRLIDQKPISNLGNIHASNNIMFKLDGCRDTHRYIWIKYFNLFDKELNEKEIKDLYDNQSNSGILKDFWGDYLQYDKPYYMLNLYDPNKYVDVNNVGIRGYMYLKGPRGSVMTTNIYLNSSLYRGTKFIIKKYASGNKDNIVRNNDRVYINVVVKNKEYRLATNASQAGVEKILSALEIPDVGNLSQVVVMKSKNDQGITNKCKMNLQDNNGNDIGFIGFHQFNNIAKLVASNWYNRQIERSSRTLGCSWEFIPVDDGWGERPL
Sequence of human CYP2C9 (P11712 whole entry): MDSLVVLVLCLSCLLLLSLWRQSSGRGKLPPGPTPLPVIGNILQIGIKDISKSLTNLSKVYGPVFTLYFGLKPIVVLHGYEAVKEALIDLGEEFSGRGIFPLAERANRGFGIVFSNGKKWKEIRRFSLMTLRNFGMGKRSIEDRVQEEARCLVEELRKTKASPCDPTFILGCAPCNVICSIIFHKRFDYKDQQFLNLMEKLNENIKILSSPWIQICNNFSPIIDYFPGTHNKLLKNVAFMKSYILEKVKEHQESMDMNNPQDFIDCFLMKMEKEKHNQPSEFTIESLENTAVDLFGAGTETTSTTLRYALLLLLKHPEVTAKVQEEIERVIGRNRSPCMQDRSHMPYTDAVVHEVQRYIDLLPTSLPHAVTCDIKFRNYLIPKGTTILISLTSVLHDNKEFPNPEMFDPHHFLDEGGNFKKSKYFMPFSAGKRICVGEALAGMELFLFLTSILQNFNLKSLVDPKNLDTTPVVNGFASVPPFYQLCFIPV

Usually IC50 stands for the midpoint of a concentration-inhibition curve. Broadly, the solubility (kinetic) is solubility judged after dilution from a stock solution rather than from solid. One may read the inhibition as the change of the read-out against control, counted positive when it falls. Lower therefore signals little suppression. For `O=C(O)CN1C(=O)/C(=C/c2ccc(-c3ccc(Cl)c(Cl)c3)o2)SC1=S` [Compound 64], the “Pampa (d) permeability class” value was “Med”. Further, at human CYP2C9, the IC50 is more than 50 µM. On lethal factor (LF) (setting [7]), the IC50 was 0.26 µM. The solubility (kinetic) in “physchem” was less than 10 µg/mL. In addition, on human CYP 2C19, inhibition was half-maximal at 36.9 µM (IC50). For the same compound, the “Plasma Stab. T = 30 min (l)” value in data set [1] came out at 79%. This compound also yielded a 50% inhibitory concentration (IC50) against human CYP2D6 of 47.6 µM. In addition, the “Cytox. (c) Cytotoxicity against HepG2 cells” value (from here on “Cytox. (c) Cytotoxicity”) in the data set on HepG2 cells was “Nontoxic up to 100 μM”. Moreover, the “Met. Stab. t1/2 (k)” value in [2] was “Degraded”. The compound further displayed an inhibition at 30 µM against hERG of 67%. In addition, the “Liver S9 Stab t1/2 (m)” value in data set [3] was “Degraded”. Moreover, the IC50 against human CYP3A4 is more than 50 µM. 2.79 µM corresponded to half-maximal inhibition against human CYP1A2 (IC50).
For the compound `O=C1/C(=C/c2cn(-c3ccccc3)nc2-c2ccc(OCc3ccc(Cl)cc3)cc2)SC(=S)N1CCS(=O)(=O)O` [Compound 38, (Z)-2-(5-((3-(4-(4-chlorobenzyloxy)phenyl)-1-phenyl-1H-pyrazol-4-yl)methylene)-4-oxo-2-thioxothiazolidin-3-yl)ethanesulfonic acid], the IC50 on lethal factor (LF) (pH 7.4, read-out: LF IC50) was 2.45 µM; at BoNT A, more than 200 µM; at MMP-2, 10.1 µM. In the data set on RAW 264.7 cells, the “protection of macrophages from LF/PA-induced cell death” value (shortened to “protection of macrophages”) is recorded as “protect macrophages from LF/PA-induced cell death”.
The term half-life denotes the time in which the quantity being followed falls by half. A low value points to rapid decline. For `O=C(O)CN1C(=O)/C(=C/c2ccc(-c3cc(C(F)(F)F)ccc3Cl)o2)SC1=S` [Compound 65], the IC50 against human CYP2C9 was more than 100 µM; on lethal factor (LF) (setting [7]) it was 0.19 µM; against human CYP 2C19, more than 100 µM; against human CYP2D6, more than 100 µM; on human MDR1 ABCB1/Pgp, more than 100 µM; against human CYP1A2 it was 20.5 µM. Further, the half-life in the data set “in vitro [4]” stood at 42.4 min; in “in vitro [5]”, 37.3 min. Also, the hepatocyte CLint in the data set “in vitro [4]” was 19.8 µL/min/1e6 cells; in “in vitro [5]”, 25. In “physchem”, this compound returned a kinetic solubility of less than 10 µg/mL. In addition, in [1], the “Plasma Stab. T = 30 min (l)” value is 82%. Also, the “Cytox. (c) Cytotoxicity” value in the data set on HepG2 cells is “Nontoxic up to 100 μM”. Moreover, at hERG, 30 µM produced 45% inhibition.
With `O=C(O)CN1C(=O)/C(=C/c2ccc(-c3cccs3)s2)SC1=S` [Compound 66, (Z)-2-(4-oxo-5-((5-(thiophen-2-yl)thiophen-2-yl)methylene)-2-thioxothiazolidin-3-yl)acetic acid], the “Pampa (d) permeability class” value was “Med”. On human CYP2C9, this compound yielded an IC50 of more than 100 µM. The IC50 at lethal factor (LF) (setting [7]) was determined as 2.3 µM. Also, in the data set “physchem”, the kinetic solubility is less than 10 µg/mL. Besides, the “Plasma Stab. T = 30 min (l)” value in data set [1] is 90%. Further, in the data set with HepG2 cells, the “Cytox. (c) Cytotoxicity” value is reported as “Nontoxic up to 100 μM”. Moreover, in data set [2], the “Met. Stab. t1/2 (k)” value was “Degraded”. In addition, the inhibition at 30 µM at hERG worked out at 29%. Moreover, in data set [3], the “Liver S9 Stab t1/2 (m)” value is “Degraded”.
On to `CC1Cc2cc(-c3nn(-c4ccccc4)cc3/C=C3\SC(=S)N(CCS(=O)(=O)O)C3=O)ccc2O1` (centres unmarked) [Compound 39, (Z)-2-(5-((3-(2-methyl-2,3-dihydrobenzofuran-5-yl)-1-phenyl-1H-pyrazol-4-yl)methylene)-4-oxo-2-thioxothiazolidin-3-yl)ethanesulfonic acid], for which the IC50 on lethal factor (LF) (pH 7.4, read-out: LF IC50) was 2.29 µM; against BoNT A, more than 200 µM. Also, in the data set with RAW 264.7 cells, the “protection of macrophages” value was “protect macrophages from LF/PA-induced cell death”.
Take `COc1ccc(-c2nn(-c3ccccc3)cc2/C=C2\SC(=S)N(CCS(=O)(=O)O)C2=O)cc1` [Compound 40, (Z)-2-(5-((3-(4-methoxyphenyl)-1-phenyl-1H-pyrazol-4-yl)methylene)-4-oxo-2-thioxothiazolidin-3-yl)ethanesulfonic acid]: the IC50 is 2.04 µM on lethal factor (LF) (pH 7.4, read-out: LF IC50); more than 200 µM on BoNT A; 34.5 µM on MMP-2. Besides, the “protection of macrophages” value in the data set on RAW 264.7 cells is reported as “protect macrophages from LF/PA-induced cell death”.
For the compound `COc1ccc(-c2ccc(/C=C3\SC(=S)N(CC(=O)O)C3=O)o2)cc1Cl` [Compound 1], the IC50 came out at 28.3 µM at human CYP2C9; 0.29 µM at lethal factor (LF); 31.3 µM against human CYP 2C19; 30.5 µM against human CYP2D6; 20.9 µM at human CYP1A2. For the same compound, the figures for the half-life in the data set “in vitro [4]” and in the data set “in vitro [5]” were 37.1 min and 128 min, respectively. Besides, the hepatocyte CLint came to 21.6 µL/min/1e6 cells in the data set “in vitro [4]” and 5.6 in the data set “in vitro [5]”. For the same compound, in “physchem”, the kinetic solubility was less than 10 µg/mL. For the same compound, the “Plasma Stab. T = 30 min (l)” value in data set [1] worked out at 90%. Further, the “Cytox. (c) Cytotoxicity” value with HepG2 cells was “Nontoxic up to 100 μM”. On hERG, this compound gave an inhibition at 30 µM of 58%.
Usually Ki stands for a dissociation constant, usually derived from enzyme kinetics or from competition with a known ligand. In the case of `CNC(=O)[C@H](Cc1c[nH]c2ccccc12)NC(=O)[C@@H](CC(=O)NO)CC(C)C` [GM6001], the Ki at LF metalloproteinase was approximately 5 µM.
On to `O=C(O)CN1C(=O)/C(=C/c2cn(-c3ccc(Cl)cc3)nc2-c2ccc(Cl)cc2)SC1=S` [Compound 34, (Z)-2-(5-((1,3-bis(4-chlorophenyl)-1H-pyrazol-4-yl)methylene)-4-oxo-2-thioxothiazolidin-3-yl)acetic acid], for which the “inhibition of MMP-9 (in words)” value against MMP-9 is reported as “did not inhibit”. In [6], the “survival compared to control group (in words, FIG. 3)” value was “survived significantly better than control”. Also, the IC50 was 2.95 µM on lethal factor (LF) (pH 7.4, read-out: LF IC50) and 8.18 µM at BoNT A. In addition, the “protection of macrophages” value in the data set on RAW 264.7 cells is recorded as “protect macrophages from LF/PA-induced cell death”. The “inhibition of MMP-2 (in words)” value on MMP-2 is reported as “did not inhibit”.
Regarding `COCCc1ccc(OCC(O)CNC(C)C)cc1` (centres unmarked) [Metoprolol], the “Pampa (d) permeability class” value is “High”.
